Measured values taken from patent US12161650B2, “Pharmaceutical compositions comprising a ryanodine receptor modulator and uses thereof” (priority 2021, dated 2024).
Values joined by “and” are separate entries in the source; they are usually repeats but may differ in a detail not shown here. Identical values can stand only once. Like-named read-outs stand apart in the source and are kept apart here.

Experiment: Phase 1b study in RYR1-Related Myopathy patients, plasma pharmacokinetics
Format: in vivo, human (RYR1-Related Myopathy patients)
Settings: for Ctrough_D13 / concentration at 13 day: Day 13 trough; for concentration at 13 day: read-out: Ctrough_D13
Procedure: A Phase 1b study is performed in RYR1-Related Myopathy (RYR1-RM) affected individuals. Compound I was administered in a gastro-resistant tablet according to Example 3 at daily doses. The formulation comprised 20 mg Compound I (based on the mass of 4-[(7-methoxy-2,3-dihydro-1,4-benzothiazepin-4(5H)yl)methyl]benzoic acid). The first three participants were dosed with 120 mg of Compound I (6×20 mg tablets) daily for approximately 28 days. The second group was dosed with 200 mg of Compound I (10×20 mg tablets daily for approximately 28 days. Bloods for PK assessments were at baseline (Day 0, 24h PK), at the study mid-point (day 14±2 days, trough PK), and at the final study visit (day 28, 24h PK). Pharmacokinetic analysis was performed on plasma samples. PK parameters are set forth below: [table]

[1] = 120 mg oral daily for 28 days, Day 28, n 3, Max
[2] = 120 mg oral daily for 28 days, Day 28, n 3, Median
[3] = 120 mg oral daily for 28 days, Day 28, n 3, Min
[4] = 120 mg oral daily for 28 days, Day 28, n 3, arithmetic mean
[5] = 120 mg oral daily for 28 days, Day 28, n 3, geometric mean
[6] = human, plasma, po, 120 mg, 120 mg oral daily for 28 days, Day 28, n 3, arithmetic mean
[7] = human, plasma, po, 120 mg, 120 mg oral daily for 28 days, Day 28, n 3, geometric mean
[8] = human, plasma, po, 200 mg, 200 mg oral daily for 28 days, three subjects
[9] = human, plasma, po, 200 mg, single oral 200 mg, three subjects
[10] = single oral 120 mg, Day 1, three subjects, Max
[11] = single oral 120 mg, Day 1, three subjects, Median
[12] = single oral 120 mg, Day 1, three subjects, Min
[13] = single oral 120 mg, Day 1, three subjects, arithmetic mean
[14] = single oral 120 mg, Day 1, three subjects, geometric mean

## COc1ccc2c(c1)CN(Cc1ccc(C(=O)O)cc1)CCS2.O=C(O)/C=C/C(=O)O [Compound I, 4-[(7-methoxy-2,3-dihydro-1,4-benzothiazepin-4(5H)yl)methyl]benzoic acid hemifumarate]
[1]
  AUC0-tau: 287 µg·h/mL
  Cmax, ss: 21300 ng/mL
  Cmin: 7760 ng/mL
  Tmax, ss: 6.00 h
  Tmin: 24.00 h
[2]
  Cmin: 7020 ng/mL
  Tmin: 24.000 h
[3]
  AUC0-tau: 243 µg·h/mL
  Cmax, ss: 16900 ng/mL
  Cmin: 5800 ng/mL
  Tmin: 1.00 h
[4]
  Cmin: 6860 ng/mL
  Tmin: 16.333 h
[5]
  Cmin: 6811 ng/mL
  Tmin: 8.320 h
120 mg oral daily, AUCtau Day 28/AUC0-24 Day 1, n 3, Max
  RA_AUC: 1.64
120 mg oral daily, AUCtau Day 28/AUC0-24 Day 1, n 3, Median
  RA_AUC: 1.618
120 mg oral daily, AUCtau Day 28/AUC0-24 Day 1, n 3, Min
  RA_AUC: 1,50
120 mg oral daily, AUCtau Day 28/AUC0-24 Day 1, n 3, arithmetic mean
  RA_AUC: 1.587
120 mg oral daily, Cmax Day 28/Cmax Day 1, n 3, Max
  RA_Cmax: 1.72
120 mg oral daily, Cmax Day 28/Cmax Day 1, n 3, Median
  RA_Cmax: 1.523
120 mg oral daily, Cmax Day 28/Cmax Day 1, n 3, Min
  RA_Cmax: 1.21
120 mg oral daily, Cmax Day 28/Cmax Day 1, n 3, arithmetic mean
  RA_Cmax: 1.485
120 mg oral daily, n 3, Median
  Ctrough_D13: 8040 ng/mL
120 mg oral daily, n 3, Min
  Ctrough_D13: 6710 ng/mL
120 mg oral daily, n 3, geometric mean
  Ctrough_D13: 7970 ng/mL
120 mg oral daily, Day 28, 1 for 1 subject, 24 for two subjects
  Time of Cmin, individual values: 1 h and 24 h
120 mg oral daily, Day 28, 4 for two participants, 6 for the third subject
  Tmax,ss, individual values: 6 h
human, plasma, po, 120 mg, 120 mg oral daily for 28 days, Day 28, n 3, Median, read-out: AUC0-tau
  AUC: 285 µg·h/mL
human, plasma, po, 120 mg, 120 mg oral daily for 28 days, Day 28, n 3, Median, read-out: Cmax, ss
  Cmax: 19800 ng/mL
human, plasma, po, 120 mg, 120 mg oral daily for 28 days, Day 28, n 3, Median, read-out: Tmax
  Tmax: 4 h
[6]
  Cmax at 28 days: 19300 ng/mL
  Tmax at 28 days: 4.67 h
human, plasma, po, 120 mg, 120 mg oral daily for 28 days, Day 28, n 3, arithmetic mean, read-out: AUC0-tau
  AUC: 272 µg·h/mL
[7]
  Cmax at 28 days: 19200 ng/mL
  Tmax at 28 days: 4.58 h
human, plasma, po, 120 mg, 120 mg oral daily for 28 days, Day 28, n 3, geometric mean, read-out: AUC0-tau
  AUC: ~271 µg·h/mL
human, plasma, po, 120 mg, 120 mg oral daily for 28 days, Day 28, n 3, geometric mean, read-out: Cmax, ss
  Cmax: ~19200 ng/mL
human, plasma, po, 120 mg, 120 mg oral daily, n 3, Max
  concentration at 13 day: 9400 ng/mL
human, plasma, po, 120 mg, 120 mg oral daily, n 3, arithmetic mean
  concentration at 13 day: 8050 ng/mL
human, plasma, po, 120 mg, 120 mg oral daily, n 3, geometric mean
  concentration at 13 day: 7970 ng/mL
human, plasma, po, 120 mg, 120 mg oral daily, Day 28, 4 for two participants, 6 for the third subject, read-out: Tmax,ss, individual values
  Tmax: 4 h
human, plasma, po, 120 mg, 120 mg oral daily, Day 28, read-out: AUC0-tau, individual values
  AUC: 243 to 287 µg·h/mL
human, plasma, po, 120 mg, 120 mg oral daily, Day 28, read-out: Cmax,ss, individual values
  Cmax: 16900 to 21300 ng/mL
human, plasma, po, 120 mg, 120 mg oral daily, Day 28, read-out: Cmin, individual values
  concentration at 28 day: 5800 to 7760 ng/mL
human, plasma, po, 120 mg, single oral 120 mg, Day 1, three subjects, Median, read-out: AUC0-24
  AUC(0-t): 175 µg·h/mL
human, plasma, po, 120 mg, single oral 120 mg, Day 1, three subjects, Median, read-out: AUC0-inf
  AUC(0-inf): 274 µg·h/mL
human, plasma, po, 120 mg, single oral 120 mg, Day 1, three subjects, Median, read-out: AUC0-t
  AUC(0-t): 175 µg·h/mL
human, plasma, po, 120 mg, single oral 120 mg, Day 1, three subjects, Median, read-out: Cmax
  Cmax: 12400 ng/mL
human, plasma, po, 120 mg, single oral 120 mg, Day 1, three subjects, Median, read-out: Tmax
  Tmax: 3 h
human, plasma, po, 120 mg, single oral 120 mg, Day 1, three subjects, Median, read-out: t½ (converted)
  half-life: 14.4 h
human, plasma, po, 120 mg, single oral 120 mg, Day 1, three subjects, arithmetic mean, read-out: AUC0-24
  AUC(0-t): 172 µg·h/mL
human, plasma, po, 120 mg, single oral 120 mg, Day 1, three subjects, arithmetic mean, read-out: AUC0-inf
  AUC(0-inf): 259 µg·h/mL
human, plasma, po, 120 mg, single oral 120 mg, Day 1, three subjects, arithmetic mean, read-out: AUC0-t
  AUC(0-t): 172 µg·h/mL
human, plasma, po, 120 mg, single oral 120 mg, Day 1, three subjects, arithmetic mean, read-out: Cmax
  Cmax: 13300 ng/mL
human, plasma, po, 120 mg, single oral 120 mg, Day 1, three subjects, arithmetic mean, read-out: Tmax
  Tmax: 3 h
human, plasma, po, 120 mg, single oral 120 mg, Day 1, three subjects, arithmetic mean, read-out: t½ (converted)
  half-life: 14.1 h
human, plasma, po, 120 mg, single oral 120 mg, Day 1, three subjects, geometric mean, read-out: AUC0-24
  AUC(0-t): 171 µg·h/mL
human, plasma, po, 120 mg, single oral 120 mg, Day 1, three subjects, geometric mean, read-out: AUC0-inf
  AUC(0-inf): 257 µg·h/mL
human, plasma, po, 120 mg, single oral 120 mg, Day 1, three subjects, geometric mean, read-out: AUC0-t
  AUC(0-t): 171 µg·h/mL
human, plasma, po, 120 mg, single oral 120 mg, Day 1, three subjects, geometric mean, read-out: Cmax
  Cmax: ~13100 ng/mL
human, plasma, po, 120 mg, single oral 120 mg, Day 1, three subjects, geometric mean, read-out: Tmax
  Tmax: 3 h
human, plasma, po, 120 mg, single oral 120 mg, Day 1, three subjects, geometric mean, read-out: t½ (converted)
  half-life: 14.1 h
human, plasma, po, 120 mg, single oral 120 mg, Day 1, read-out: AUC0-inf, individual values
  AUC(0-inf): 212 to 290 µg·h/mL
human, plasma, po, 120 mg, single oral 120 mg, Day 1, read-out: AUC0-t, individual values
  AUC(0-t): 150 to 190 µg·h/mL
human, plasma, po, 120 mg, single oral 120 mg, Day 1, read-out: Cmax, individual values
  Cmax: 11100 to 16300 ng/mL
human, plasma, po, 120 mg, single oral 120 mg, Day 1, read-out: TMax, all participants
  Tmax: 3 h
human, plasma, po, 120 mg, single oral 120 mg, Day 1, read-out: half-life, individual values (converted)
  half-life: 12.8 h
[8]
  concentration at 0 h: 7450 ng/mL
  concentration at 0.5 h: 8190 ng/mL
  concentration at 1 h: 7900 ng/mL
  concentration at 3 h: 13500 ng/mL
  concentration at 4 h: 15100 ng/mL
  concentration at 5 h: 17800 ng/mL
  concentration at 6 h: 20000 ng/mL
  concentration at 8 h: 18300 ng/mL
  concentration at 12 h: 15400 ng/mL
  concentration at 24 h: 8550 ng/mL
human, plasma, po, 200 mg, 200 mg oral daily for 28 days, three subjects, time 2 hr
  concentration at 2 hr: 8830 ng/mL
human, plasma, po, 200 mg, 200 mg oral daily for 28 days, read-out: Tmax, all participants
  Tmax: 5 to 6 h
[9]
  concentration at 0 h: 0 ng/mL
  concentration at 0.5 h: 0 ng/mL
  concentration at 1 h: 0 ng/mL
  concentration at 3 h: 1110 ng/mL
  concentration at 4 h: 14300 ng/mL
  concentration at 5 h: 17600 ng/mL
  concentration at 6 h: 15900 ng/mL
  concentration at 8 h: 13400 ng/mL
  concentration at 12 h: 10000 ng/mL
  concentration at 24 h: 5520 ng/mL
human, plasma, po, 200 mg, single oral 200 mg, three subjects, time 2 hr
  concentration at 2 h: 176 ng/mL
human, plasma, po, 200 mg, single oral 200 mg, read-out: TMax, all participants
  Tmax: 5 to 6 h
Single oral 120 mg, Day 1
  half-life, individual values: 15.28 h and 14.40 h
[10]
  AUC0-24: 190 µg·h/mL
  AUC % extrap: 36.4%
  AUC(0-inf): 290 µg·h/mL
  AUC(0-t): 190 µg·h/mL
  Cmax: 16300 ng/mL
  Kel: 0.0544 h⁻¹
  Tlag: 0.50 h
  t½: 15.28 h
[11]
  AUC % extrap: 34.33%
  Kel: 0.04813 h⁻¹
  Tlag: 0.000 h
[12]
  AUC0-24: 150 µg·h/mL
  AUC % extrap: 29.4%
  AUC(0-inf): 212 µg·h/mL
  AUC(0-t): 150 µg·h/mL
  Cmax: 11100 ng/mL
  Kel: 0.0454 h⁻¹
  Tlag: 0.00 h
  t½: 12.75 h
[13]
  AUC % extrap: 33.36%
  Kel: 0.04929 h⁻¹
  Tlag: 0.167 h
  t½: 14.142 h
[14]
  AUC % extrap: 33.23%
  AUC(0-inf): 256.6 µg·h/mL
  AUC(0-t): 170.8 µg·h/mL
  Kel: 0.04915 h⁻¹
